In patent US20250352520A1, “USE OF DEXPRAMIPEXOLE FOR THE TREATMENT OF EOSINOPHILIC COPD” (Areteia Therapeutics, Inc., priority 2024, published 2025):

Conditions: Week 12; <50% AEC reduction at Week 16

## CCCN[C@@H]1CCc2nc(N)sc2C1 [Dexpramipexole, (6R)-2-amino-4,5,6,7-tetrahydro-6-(propylamino)benzothiazole]
  Pre-BD FEF25-75 % change from baseline, Max: 47%
  Pre-BD FEF25-75 % change from baseline, Mean ± SD: 23.9 ± 28.49%
  Pre-BD FEF25-75 % change from baseline, Median: 30.3%
  Pre-BD FEF25-75 % change from baseline, Min: −12%
  Pre-BD FEF25-75 % change from baseline, Q1: 1%
  Pre-BD FEF25-75 % change from baseline, Q3: 47%
  Pre-BD FEF25-75 Observed, Max: 2050 mL/s
  Pre-BD FEF25-75 Observed, Mean ± SD: 857.5 ± 805.29 mL/s
  Pre-BD FEF25-75 Observed, Median: 515.0 mL/s
  Pre-BD FEF25-75 Observed, Min: 350 mL/s
  Pre-BD FEF25-75 Observed, Q1: 370 mL/s
  Pre-BD FEF25-75 Observed, Q3: 1345 mL/s
  Pre-BD FEF25-75 change from baseline, Max: 660 mL/s
  Pre-BD FEF25-75 change from baseline, Mean ± SD: 182.5 ± 329.18 mL/s
  Pre-BD FEF25-75 change from baseline, Median: 80.0 mL/s
  Pre-BD FEF25-75 change from baseline, Min: -90 mL/s
  Pre-BD FEF25-75 change from baseline, Q1: -20 mL/s
  Pre-BD FEF25-75 change from baseline, Q3: 385 mL/s
  Pre-BD FEV1 % change from baseline, Max: 41%
  Pre-BD FEV1 % change from baseline, Mean ± SD: 10.1 ± 21.78%
  Pre-BD FEV1 % change from baseline, Median: 4.2%
  Pre-BD FEV1 % change from baseline, Min: −9%
  Pre-BD FEV1 % change from baseline, Q1: −3%
  Pre-BD FEV1 % change from baseline, Q3: 23%
  Pre-BD FEV1 Observed, Max: 2940 mL
  Pre-BD FEV1 Observed, Mean ± SD: 1672.5 ± 886.84 mL
  Pre-BD FEV1 Observed, Median: 1440.0 mL
  Pre-BD FEV1 Observed, Min: 870 mL
  Pre-BD FEV1 Observed, Q1: 1145 mL
  Pre-BD FEV1 Observed, Q3: 2200 mL
  Pre-BD FEV1 change from baseline, Max: 860 mL
  Pre-BD FEV1 change from baseline, Mean ± SD: 200.0 ± 449.52 mL
  Pre-BD FEV1 change from baseline, Median: 45.0 mL
  Pre-BD FEV1 change from baseline, Min: -150 mL
  Pre-BD FEV1 change from baseline, Q1: -55 mL
  Pre-BD FEV1 change from baseline, Q3: 455 mL
  Pre-BD FVC % change from baseline, Max: 10%
  Pre-BD FVC % change from baseline, Mean ± SD: −3.1 ± 11.75%
  Pre-BD FVC % change from baseline, Median: −2.9%
  Pre-BD FVC % change from baseline, Min: −17%
  Pre-BD FVC % change from baseline, Q1: −12%
  Pre-BD FVC % change from baseline, Q3: 6%
  Pre-BD FVC Observed, Max: 3990 mL
  Pre-BD FVC Observed, Mean ± SD: 2942.5 ± 825.44 mL
  Pre-BD FVC Observed, Median: 2830.0 mL
  Pre-BD FVC Observed, Min: 2120 mL
  Pre-BD FVC Observed, Q1: 2300 mL
  Pre-BD FVC Observed, Q3: 3585 mL
  Pre-BD FVC change from baseline, Max: 370 mL
  Pre-BD FVC change from baseline, Mean ± SD: -52.5 ± 345.68 mL
  Pre-BD FVC change from baseline, Median: -75.0 mL
  Pre-BD FVC change from baseline, Min: -430 mL
  Pre-BD FVC change from baseline, Q1: -320 mL
  Pre-BD FVC change from baseline, Q3: 215 mL
  Pre-BD Peak Flow % change from baseline, Max: 478%
  Pre-BD Peak Flow % change from baseline, Mean ± SD: 121.7 ± 237.65%
  Pre-BD Peak Flow % change from baseline, Median: 12.2%
  Pre-BD Peak Flow % change from baseline, Min: −15%
  Pre-BD Peak Flow % change from baseline, Q1: −5%
  Pre-BD Peak Flow % change from baseline, Q3: 249%
  Pre-BD Peak Flow Observed, Max: 246 L/min
  Pre-BD Peak Flow Observed, Mean ± SD: 204.8 ± 42.39 L/min
  Pre-BD Peak Flow Observed, Median: 210.5 L/min
  Pre-BD Peak Flow Observed, Min: 152 L/min
  Pre-BD Peak Flow Observed, Q1: 171 L/min
  Pre-BD Peak Flow Observed, Q3: 239 L/min
  Pre-BD Peak Flow change from baseline, Max: 191 L/min
  Pre-BD Peak Flow change from baseline, Mean ± SD: 48.3 ± 98.44 L/min
  Pre-BD Peak Flow change from baseline, Median: 18.0 L/min
  Pre-BD Peak Flow change from baseline, Min: -34 L/min
  Pre-BD Peak Flow change from baseline, Q1: -12 L/min
  Pre-BD Peak Flow change from baseline, Q3: 108 L/min
